Assay [1] concerns the target T1, Avi-KRAS G12R (1-169) GppNHp/RAF1 RBD-3xFLAG (52-151) (Homo sapiens, UniProt P01116, G12R).
T1 construct: Avi-KRAS G12R (1-169)
The assay is described as follows: Raf1-KRAS G12R-GppNHP disruption HTRF assay (Biological Example 1). Format: binding. To be noted: KRAS G12R, GppNHp-loaded; Table 11. A digest of the protocol: (§1)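 First, protein mix in Tris pH 7.5 buffer with NaCl, MgCl2, BSA, Tween and 10% DMSO is incubated 1 h at room temperature. Next, reagent mix is added and incubated a further 1 h at room temperature. Finally, HTRF is read and activity normalized to DMSO.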

For assay [2], the target named is T2, Avi-KRAS G12V (1-169) GppNHp/RAF1 RBD-3xFLAG (52-151) (Homo sapiens, UniProt P01116, G12V).
T2 construct: Avi-KRAS G12V (1-169)
The assay is described as follows: Raf1-KRAS G12V-GppNHP disruption HTRF assay (Biological Example 1). Format: binding. The settings on record: KRAS G12V, GppNHp-loaded; Table 11. A digest of the protocol: as §1

The target in assay [3] is T3, Avi-KRAS G12D (1-169) GppNHp/RAF1 RBD-3xFLAG (52-151) (Homo sapiens, UniProt P01116, G12D).
T3 construct: Avi-KRAS G12D (1-169)
Description: Raf1-KRAS G12D-GppNHP disruption HTRF assay (Biological Example 1). Format: binding. To be noted: KRAS G12D, GppNHp-loaded; Table 11. In a few lines:
as §1

For assay [4], the target named is T4, Avi-KRAS WT (1-169) GppNHp/RAF1 RBD-3xFLAG (52-151) (Homo sapiens, UniProt P01116).
T4 construct: Avi-KRAS WT (1-169)
The assay is described as follows: Raf1-KRAS WT-GppNHP disruption HTRF assay (Biological Example 1). Format: binding. To be noted: KRAS WT, GppNHp-loaded; Table 11. In a few lines:
as §1
(In general: TR-FRET usually uses a lanthanide donor and a delayed reading to cut background.)

Assay [5] has as its system GP2d cells (KRAS G12D). The assay is described as follows: Cell-based pERK HTRF assay in GP2d cell (Biological Example 2). The settings on record: GP2d, GP2d (KRAS G12D) cells, pERK HTRF. A digest of the protocol:
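Phospho-ERK is measured by HTRF following a 60 min compound exposure at 0.25% DMSO, with a 9-point half-log curve topping at 1 μM or 100 nM.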

Assay [6] relates to SW620 cells (KRAS G12V). The assay is described as follows: Cell-based pERK HTRF assay in SW620 cell (Biological Example 4). To be noted: Homo sapiens, SW-620, SW620 (KRAS G12V) cells, pERK HTRF. In a few lines:
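SW620 cells were treated for 4 h with compound in a 9-point half-log series from 1 μM top (0.25% DMSO), then lysed. Phospho-ERK was detected by HTRF with d2 and Eu cryptate antibodies after 4–24 h at room temperature, read at 615 nm emission.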

pIC50: −log10 of the molar value.

T1 sequence (P01116 1-169 isoform P01116-2 G12R): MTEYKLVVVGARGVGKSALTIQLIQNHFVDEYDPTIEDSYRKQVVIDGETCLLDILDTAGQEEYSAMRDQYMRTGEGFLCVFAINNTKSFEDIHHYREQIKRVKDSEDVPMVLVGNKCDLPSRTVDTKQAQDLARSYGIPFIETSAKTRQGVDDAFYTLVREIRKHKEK
T3 sequence (P01116 1-169 isoform P01116-2 G12D): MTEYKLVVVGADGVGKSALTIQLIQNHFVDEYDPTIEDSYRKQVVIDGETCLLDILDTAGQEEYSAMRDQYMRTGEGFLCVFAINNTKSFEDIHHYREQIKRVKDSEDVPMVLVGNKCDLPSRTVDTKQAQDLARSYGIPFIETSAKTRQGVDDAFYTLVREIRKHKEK
T2 sequence (P01116 1-169 isoform P01116-2 G12V): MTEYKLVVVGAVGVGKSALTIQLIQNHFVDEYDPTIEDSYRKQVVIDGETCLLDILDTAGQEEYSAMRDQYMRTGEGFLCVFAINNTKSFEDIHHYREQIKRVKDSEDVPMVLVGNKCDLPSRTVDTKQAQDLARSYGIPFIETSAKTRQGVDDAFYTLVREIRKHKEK
T4 sequence (P01116 1-169 isoform P01116-2): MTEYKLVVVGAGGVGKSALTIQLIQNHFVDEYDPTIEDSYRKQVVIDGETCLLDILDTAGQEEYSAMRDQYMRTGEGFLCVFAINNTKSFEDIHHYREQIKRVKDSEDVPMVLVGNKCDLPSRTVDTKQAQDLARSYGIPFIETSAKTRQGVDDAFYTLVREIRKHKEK

With `N#Cc1c(N)sc2c(F)ccc(-c3c(C(F)(F)F)cc4c(N5CCCC6(C5)NC(=O)NC6=O)nc(OC[C@@]56CCCN5C[C@H](F)C6)nc4c3F)c12` (stereo partly drawn) [Compound 248], the pIC50 in assay [1], in assay [2], in assay [3], in assay [4], in assay [5] and in assay [6] was 6.00 to 7.00 throughout.
On to `N#Cc1c(N)sc2c(F)ccc(-c3c(C(F)(F)F)cc4c(N5CCNC(=O)CC5)nc(OC[C@@]56CCCN5C[C@H](F)C6)nc4c3F)c12` [Compound 251], for which the pIC50 (usually the IC50 on a negative log10 scale, so that one unit is a factor of ten) in assay [1] is 6.00 to 7.00; in assay [2] it was 6.00 to 7.00; in assay [3], 6.00 to 7.00; in assay [4], 6.00 to 7.00; in assay [5], more than 7.00; in assay [6], 6.00 to 7.00.
With `C[C@H]1[C@@H](N(C)c2nc(OC[C@@]34CCCN3C[C@H](F)C4)nc3c(F)c(-c4ccc(F)c5sc(N)c(C#N)c45)c(C(F)(F)F)cc23)CCN1C(=O)CC#N` [Compound 252], the pIC50 is 5.00 to 6.00 in assay [1]; 5.00 to 6.00 in assay [2]; 5.00 to 6.00 in assay [3]; 5.00 to 6.00 in assay [4]; 6.00 to 7.00 in assay [5]; 6.00 to 7.00 in assay [6].
Regarding `CC(=O)N(C)CCN(C)c1nc(OC[C@@]23CCCN2C[C@H](F)C3)nc2c(F)c(-c3ccc(F)c4sc(N)c(C#N)c34)c(C(F)(F)F)cc12` [Compound 255], the pIC50 in assay [1] was 6.00 to 7.00; in assay [2], 6.00 to 7.00; in assay [3] it was 6.00 to 7.00; in assay [4] it was 6.00 to 7.00; in assay [5] it was more than 7.00; in assay [6] it was more than 7.00.
`CN(C)C(=O)c1cc2n(n1)CCCN(c1nc(OC[C@@]34CCCN3C[C@H](F)C4)nc3c(F)c(-c4ccc(F)c5sc(N)c(C#N)c45)c(C(F)(F)F)cc13)C2` [Compound 256]: the pIC50 is 6.00 to 7.00 in assay [1]; 6.00 to 7.00 in assay [2]; more than 7.00 in assay [3]; 6.00 to 7.00 in assay [4]; more than 7.00 in assay [5]; more than 7.00 in assay [6].
For `CN1CCN(c2nc(OC[C@@]34CCCN3C[C@H](F)C4)nc3c(F)c(-c4ccc(F)c5sc(N)c(C#N)c45)c(C(F)(F)F)cc23)CC1=O` [Compound 257], the pIC50 in assay [1] was 5.00 to 6.00; in assay [2] it was 5.00 to 6.00; in assay [3] it was 6.00 to 7.00; in assay [4], 6.00 to 7.00; in assay [5], more than 7.00; in assay [6], more than 7.00.
As to `N#Cc1c(N)sc2c(F)ccc(-c3c(C(F)(F)F)cc4c(N5C[C@@H]6C[C@H]5CO6)nc(OC[C@@]56CCCN5C[C@H](F)C6)nc4c3F)c12` [Compound 259], the pIC50 was 6.00 to 7.00 in assay [1]; 5.00 to 6.00 in assay [2]; 6.00 to 7.00 in assay [3]; 6.00 to 7.00 in assay [4]; more than 7.00 in assay [5]; more than 7.00 in assay [6].
Regarding `CC(C)C(=O)N1CC[C@@H](N(C)c2nc(OC[C@@]34CCCN3C[C@H](F)C4)nc3c(F)c(-c4ccc(F)c5sc(N)c(C#N)c45)c(C(F)(F)F)cc23)[C@H]1C` [Compound 261], the pIC50 in assay [1] is 6.00 to 7.00; in assay [2], 6.00 to 7.00; in assay [3], 6.00 to 7.00; in assay [4], more than 7.00; in assay [5] it was more than 7.00; in assay [6] it was more than 7.00.
Take `N#Cc1c(N)sc2c(F)ccc(-c3c(C(F)(F)F)cc4c(N5CCCS(=O)(=O)CC5)nc(OC[C@@]56CCCN5C[C@H](F)C6)nc4c3F)c12` [Compound 263]: the pIC50 was more than 7.00 in assay [1]; 6.00 to 7.00 in assay [2]; more than 7.00 in assay [3]; more than 7.00 in assay [4]; more than 7.00 in assay [5]; more than 7.00 in assay [6].
As to `CN(c1nc(OC[C@@]23CCCN2C[C@H](F)C3)nc2c(F)c(-c3ccc(F)c4sc(N)c(C#N)c34)c(C(F)(F)F)cc12)C1CCOCC1` [Compound 264], the pIC50 was 6.00 to 7.00 in assay [1]; 5.00 to 6.00 in assay [2]; 6.00 to 7.00 in assay [3]; 6.00 to 7.00 in assay [4]; more than 7.00 in assay [5]; 6.00 to 7.00 in assay [6].
Regarding `C[C@@H]1C[C@H](O)CCN1c1nc(OC[C@@]23CCCN2C[C@H](F)C3)nc2c(F)c(-c3ccc(F)c4sc(N)c(C#N)c34)c(C(F)(F)F)cc12` [Compound 265], the pIC50 in assay [1] is 6.00 to 7.00; in assay [2] it was 6.00 to 7.00; in assay [3] it was 6.00 to 7.00; in assay [4], 6.00 to 7.00; in assay [5], more than 7.00; in assay [6], more than 7.00.
For the compound `N#Cc1c(N)sc2c(F)ccc(-c3c(C(F)(F)F)cc4c(N5CCOCC(O)C5)nc(OC[C@@]56CCCN5C[C@H](F)C6)nc4c3F)c12` (stereo partly drawn) [Compound 266], the negative logarithm of the IC50 (pIC50) in assay [1] was more than 7.00; in assay [2] it was 6.00 to 7.00; in assay [3], more than 7.00; in assay [4] it was more than 7.00; in assay [5] it was more than 7.00; in assay [6], more than 7.00.
`N#Cc1c(N)sc2c(F)ccc(-c3c(C(F)(F)F)cc4c(N5CCCC(O)CC5)nc(OC[C@@]56CCCN5C[C@H](F)C6)nc4c3F)c12` (stereo partly drawn) [Compound 267]: the pIC50 in assay [1] is more than 7.00; in assay [2], 6.00 to 7.00; in assay [3], more than 7.00; in assay [4], 6.00 to 7.00; in assay [5], more than 7.00; in assay [6] it was more than 7.00.
Regarding `CC(C)(O)[C@H]1CCN1c1nc(OC[C@@]23CCCN2C[C@H](F)C3)nc2c(F)c(-c3ccc(F)c4sc(N)c(C#N)c34)c(C(F)(F)F)cc12` [Compound 269], the pIC50 in assay [1] is 6.00 to 7.00; in assay [2], 5.00 to 6.00; in assay [3] it was 6.00 to 7.00; in assay [4] it was 6.00 to 7.00; in assay [5] it was more than 7.00; in assay [6], 6.00 to 7.00.
Regarding `COC[C@H]1CCN1c1nc(OC[C@@]23CCCN2C[C@H](F)C3)nc2c(F)c(-c3ccc(F)c4sc(N)c(C#N)c34)c(C(F)(F)F)cc12` [Compound 270], the pIC50 in assay [1], in assay [2], in assay [3], in assay [4], in assay [5] and in assay [6] was 6.00 to 7.00 throughout.
With `CN1CCN(c2nc(OC[C@@]34CCCN3C[C@H](F)C4)nc3c(F)c(-c4ccc(F)c5sc(N)c(C#N)c45)c(C(F)(F)F)cc23)CCC1=O` [Compound 271], the pIC50 in assay [1] is 6.00 to 7.00; in assay [2] it was 6.00 to 7.00; in assay [3], 6.00 to 7.00; in assay [4], 6.00 to 7.00; in assay [5], more than 7.00; in assay [6], more than 7.00.
In the case of `N#Cc1c(N)sc2c(F)ccc(-c3c(C(F)(F)F)cc4c(N5CC[C@@H]5CF)nc(OC[C@@]56CCCN5C[C@H](F)C6)nc4c3F)c12` [Compound 272], the pIC50 was 6.00 to 7.00 in assay [1]; 6.00 to 7.00 in assay [2]; 6.00 to 7.00 in assay [3]; 6.00 to 7.00 in assay [4]; more than 7.00 in assay [5]; more than 7.00 in assay [6].
With `CC(=O)N1C[C@H](F)[C@@H](N(C)c2nc(OC[C@@]34CCCN3C[C@H](F)C4)nc3c(F)c(-c4ccc(F)c5sc(N)c(C#N)c45)c(C(F)(F)F)cc23)C1` [Compound 273], the pIC50 is 6.00 to 7.00 in assay [1]; 6.00 to 7.00 in assay [2]; 6.00 to 7.00 in assay [3]; 6.00 to 7.00 in assay [4]; more than 7.00 in assay [5]; 6.00 to 7.00 in assay [6].
On to `CN(c1nc(OC[C@@]23CCCN2C[C@H](F)C3)nc2c(F)c(-c3ccc(F)c4sc(N)c(C#N)c34)c(C(F)(F)F)cc12)[C@@H]1CCCOC1` [Compound 274], for which the pIC50 in assay [1] is 6.00 to 7.00; in assay [2], 6.00 to 7.00; in assay [3] it was 6.00 to 7.00; in assay [4] it was 6.00 to 7.00; in assay [5] it was more than 7.00; in assay [6] it was more than 7.00.
Take `CC(=O)N1C[C@@H](N(C)c2nc(OC[C@@]34CCCN3C[C@H](F)C4)nc3c(F)c(-c4ccc(F)c5sc(N)c(C#N)c45)c(C(F)(F)F)cc23)C[C@H]1C` [Compound 277]: the negative logarithm of the IC50 (pIC50) in assay [1] is 6.00 to 7.00; in assay [2] it was 6.00 to 7.00; in assay [3] it was 6.00 to 7.00; in assay [4] it was 6.00 to 7.00; in assay [5], more than 7.00; in assay [6], more than 7.00.
As for `CC(=O)N1CCCN(c2nc(OC[C@@]34CCCN3C[C@H](F)C4)nc3c(F)c(-c4ccc(F)c5sc(N)c(C#N)c45)c(C(F)(F)F)cc23)CC1` [Compound 278], the pIC50 in assay [1] was 6.00 to 7.00; in assay [2] it was 6.00 to 7.00; in assay [3] it was 6.00 to 7.00; in assay [4] it was 6.00 to 7.00; in assay [5] it was more than 7.00; in assay [6], more than 7.00.

(Values after patent US20260042764A1, “COMPOSITIONS AND METHODS FOR INHIBITION OF KRAS” (TheRas, Inc., priority 2022, published 2026).)
